Consider 110 compounds from a melting point compilation (Tetko et al.).

Bounds are passed on as bounds.

A word on the melting point: it is the temperature, or range, at which the solid turns liquid.

Regarding `COC(=O)[C@H](CCC(=O)O)NC(=O)OCc1ccccc1`, the melting point fell in the range of 68 to 70 °C.

In turn, `NS(=O)(=O)c1ccccc1[N+](=O)[O-]` registered a melting point of 191 °C.

Regarding `ON=Cc1c(F)cccc1Cl`, the melting point is 133 °C.

Regarding `COc1ccc(OC)c(C(=O)CCCCC(=O)O)c1`, the melting point was 76 °C.

Compound `NC(=O)/C(=N\Nc1ccc(F)cc1)c1nc2ccccc2s1` returned a melting point of 158 °C.

As to `CCC(Oc1ccccc1)C(=O)O` (stereo not given), the melting point was 81 °C.

Compound `CC(C)(C)c1cc(CO)cc(C(C)(C)C)c1O` displayed a melting point of 140 °C.

The compound `Cc1cc(C)cc(CC#N)c1` showed a melting point of 44 °C.

`CNc1ccc2cc(OC)[nH]c2c1` came in with a melting point of 165 °C.

For the compound `Nc1ccc(C(=O)O)cc1O`, the melting point is 211 to 215 °C.

Consider `C=CC(C)(CCC=C(C)C)OC(=O)C(C)C` (stereo not given), for which the melting point is < 25 °C.

Consider `Nc1cccc(-c2cccc(N)c2)c1`, for which the melting point stood at 93.5 °C.

For the compound `Nc1n[nH]cc1Br`, the melting point was in the range of 133 to 135 °C.

Regarding `Cc1cc(Br)c2c(c1N)C(=O)c1ccccc1C2=O`, the melting point lay within 245 to 252 °C.

`NC(=S)c1ccc(Cl)cc1Cl`: the melting point lay within 135 to 136 °C.

As for `CC(=O)OC1CCC2C3CCC4CC5(CCC4(C)C3CCC12C)OCCO5` (stereo not given), the melting point came to 144 °C.

For `CSc1nc2cc(NCc3ccc(Cl)cc3)ccc2[nH]1`, the melting point came out at 248 °C.

With `Cc1cc(O)c2c(c1)C(=O)c1cccc(O)c1C2=O`, the melting point amounted to 196 °C.

Compound `NC(=O)c1ccc2ccccc2c1` returned a melting point of 195 °C.

For `CC(=O)N(C(C)=O)c1ccccc1`, the melting point came to 37.5 °C.

`Cc1nc(-c2ccccc2)no1` yielded a melting point of 35 °C.

On to `COc1cc(/C=C\C(=O)NCCc2ccc(OCc3ccccc3)c(OC)c2)ccc1OCc1ccccc1`, for which the melting point was found to be 163 °C.

As for `c1cc(-c2cnco2)ccn1`, the melting point lay in the range of 127 to 128 °C.

`O=[N+]([O-])c1ccc(N/N=C2\Cc3c2ccc2ccccc32)c([N+](=O)[O-])c1` showed a melting point of 273 to 276 °C.

Compound `CCC1C2=C(OC(=O)C1(C)C)c1ccc(OC)cc1CC2` (stereo not given) displayed a melting point of 142 to 143 °C.

`COc1cc2nc(Cl)nc(Cl)c2cc1OC` came in with a melting point of 177 °C.

As for `O=C(O)c1ccc(Oc2ccccc2)cc1`, the melting point was 162 °C.

The compound `CCOc1cccc2cc(C(=O)O)c(=O)oc12` had a melting point of 190 to 192 °C.

For `CCOC(=O)c1c(-c2ccccc2)csc1NC(=O)C(Cl)Cl`, the melting point was in the range of 92 to 93 °C.

Compound `CCCOC(=O)C1=C(C)NC(=O)NC1c1ccccc1O` (stereo not given) displayed a melting point of 189 °C.

In the case of `CC(=O)Nc1cc(Cl)ccc1C(=O)O`, the melting point lay within 202 to 207 °C.

The compound `CC1CCC(C(C)C)C(OCC(=O)O)C1` (stereo not given) displayed a melting point of 54 °C.

On to `NC(N)=NS(=O)(=O)c1ccc(N)cc1`, for which the melting point was determined as 192 °C.

As for `O=C1c2ccccc2NC1(OC1(c2ccccn2)Nc2ccccc2C1=O)c1ccccn1` (stereo not given), the melting point amounted to 240 °C.

For the compound `CC(=O)NC1C(Oc2ccccc2[N+](=O)[O-])OC(CO)C(O)C1O` (stereo not given), the melting point is 204 to 208 °C.

`Cn1c(-c2ccc(Cl)cc2)cnc1S` had a melting point of 244 to 247 °C.

For the compound `O=C(c1cc(O)c(O)c(O)c1)c1ccc(O)c(O)c1O`, the melting point worked out at 270 °C.

Turning to `CC(C)(C)OC(=O)Nc1cc(O)cc(C(=O)O)c1`, the melting point was in the range of 150 to 151 °C.

Compound `COc1cc(NS(=O)(=O)c2ccc(N)cc2)nc(C)n1` yielded a melting point of 146 °C.

As for `Cc1ccc(C)c2c1C(=O)N(C)C2=O`, the melting point was determined as 170 °C.

In turn, `CCCC(=O)Nc1ccc(O)cc1` had a melting point of 140 °C.

In turn, `CCC1OC(=O)C(C)C(OC2CC(C)(OC)C(O)C(C)O2)C(C)C(OC2OC(C)CC(N(C)C)C2O)C(C)(O)CC(C)C(=O)C(C)C(O)C1(C)O` (stereo not given) had a melting point of 135 °C.

Regarding `Fc1ccc(I)cn1`, the melting point worked out at 32 °C.

In turn, `COC(=O)c1sc(N(C)C)c(C#N)c1N` came in with a melting point of 240 to 243 °C.

`COc1cccc(F)c1C#N` yielded a melting point of 103 °C.

In turn, `c1ccc2c(c1)NCCN2` showed a melting point of 99 °C.

As to `CCC(N)Cc1c[nH]c2ccccc12` (stereo not given), the melting point amounted to 97 °C.

On to `N#Cc1ccnc(Br)c1`, for which the melting point amounted to 72 °C.

The compound `CC12CCC3C(CCC4=CC(=O)C=CC43C)C1CCC(=O)O2` (stereo not given) had a melting point of 218 °C.

In the case of `O=C1c2ccc(O)cc2C(=O)c2cc(O)ccc21`, the melting point worked out at 354 °C.

`O=Cc1cc(O)c(O)cc1O`: the melting point amounted to 223 °C.

Turning to `NC(=O)C1CCCN1C(=O)COC(=O)c1ccccc1` (stereo not given), the melting point is 194 °C.

Compound `CC/C(=N\NC(N)=O)C1CC2(C)CCC1C2(C)C` (stereo not given) gave a melting point of 222 °C.

Regarding `CC(=O)NCC1CN(c2ccc(N3CCOCC3)c(F)c2)C(=O)O1` (stereo not given), the melting point worked out at 182 °C.

`Fc1cccc(CBr)c1C(F)(F)F` showed a melting point of 42 °C.

`COc1ccc2ccccc2c1CO` had a melting point of 100 to 104 °C.

Consider `CCCCCCCC(=O)OC`, for which the melting point is -40 °C.

`CC(C)(C)OC(=O)N1c2ccccc2CC1CO` (stereo not given) displayed a melting point of 84 to 89 °C.

Regarding `CCOc1cccc(C(=O)NN)c1`, the melting point was 102 °C.

Consider `N#Cc1ccc(C(Cl)C(Cl)c2cccc(C(Cl)C(Cl)c3ccc(C#N)cc3[N+](=O)[O-])c2)c([N+](=O)[O-])c1` (stereo not given), for which the melting point is 248 °C.

As for `CC1CCC2(C)CCC3(C)C(=CCC4C5(C)CCC(O)C(C)(C)C5CCC43C)C2C1C` (stereo not given), the melting point stood at 186 °C.

As to `O=[N+]([O-])c1ccc(N/N=C2\Cc3ccccc32)c([N+](=O)[O-])c1`, the melting point is 203 °C.

Turning to `NCc1ccccc1`, the melting point was found to be 10 °C.

`CSC(S)=Nc1ccc(Br)cc1` came in with a melting point of 133 to 134 °C.

On to `CN1CCOc2cc(C(=O)O)cnc21`, for which the melting point lay within 232 to 280 °C.

Compound `CC(=O)c1ccc(F)cc1Br` gave a melting point of 48 to 50 °C.

For `Nc1ncn(C2OC(CO)C(O)C2O)c(=O)n1` (stereo not given), the melting point is 229 °C.

`NCc1cccc(-c2ccsc2)c1` yielded a melting point of 80 °C.

`OCCN(CCO)c1nc(N2CCCCC2)c2nc(N(CCO)CCO)nc(N3CCCCC3)c2n1` had a melting point of 163 °C.

`O=C(C=Cc1ccsc1)c1ccccc1` returned a melting point of 88 °C.

`O=C(O)COc1ccccc1Br` showed a melting point of 141 to 145 °C.

The compound `O=C1C(=Cc2ccccc2)Cc2ccccc21` showed a melting point of 110 °C.

For the compound `O=[N+]([O-])c1ccc(C=Cc2ccc([N+](=O)[O-])cc2)cc1`, the melting point was found to be 183 °C.

For the compound `Nc1nc(O)cc(Cl)n1`, the melting point was determined as 262 °C.

As for `COc1cc2c(c(OC)c1OC)-c1ccc(O)c(=O)cc1C(NC(C)=O)CC2` (stereo not given), the melting point stood at 178 °C.

As to `C#CCCCCCCCCCCCCCC`, the melting point was 15 °C.

Turning to `Brc1cccc(Oc2ccccc2)c1`, the melting point is < 20 °C.

`CC(=O)OCC1OC(S)C(OC(C)=O)C(OC(C)=O)C1OC(C)=O` (stereo not given) showed a melting point of 114 to 119 °C.

`Nc1c(Cl)c(Cl)cc(Cl)c1Cl` gave a melting point of 107 °C.

`Cc1cccc(NC(=O)c2ccccc2)c1` yielded a melting point of 125 °C.

In the case of `NC(=O)CN(CC(=O)O)CC(=O)O`, the melting point was 219 °C.

The compound `O=C1C=CC(=O)c2ccccc21` yielded a melting point of 128 °C.

`CSc1nc(=O)n2ccccc2n1` showed a melting point of 150 to 151 °C.

Compound `CC(C)(C)NCC(O)c1ccc(O)c(CO)c1` (stereo not given) showed a melting point of 154 °C.

`Brc1cccnc1Br`: the melting point worked out at 59 °C.

`Clc1ccc2nc(Cl)sc2c1` returned a melting point of 96 °C.

In the case of `CCC1(CC)OC(=O)C2CCC1(C)OC2(C)C` (stereo not given), the melting point was 90 °C.

Take `O=C1C(Br)C2c3ccccc3C(C1Br)C(Br)C(=O)C2Br` (stereo not given): the melting point was determined as 80 °C.

Compound `CC1CCC(C)(C(=O)NNc2ccccc2)C1(C)C` (stereo not given) returned a melting point of 92 °C.

Take `CCC1CN2CCc3c([nH]c4cccc(OC)c34)C2CC1C(=COC)C(=O)OC` (stereo not given): the melting point was found to be 104 °C.

`Cc1ccc(S(=O)(=O)OCC2Cc3ccccc3O2)cc1` (stereo not given) returned a melting point of 72 to 73 °C.

`CCCC1(O)CCC2C3CCC4CC(OC(C)=O)CCC4(C)C3CCC21C` (stereo not given) displayed a melting point of 120 to 121 °C.

Regarding `CN(C)CCn1cnc2c1c(=O)n(C)c(=O)n2C`, the melting point amounted to 95 °C.

In turn, `Cc1cc(C(=O)NN)[nH]n1` returned a melting point of 157 to 158 °C.

In the case of `Cc1ccc(-c2nc(C(=O)O)cs2)cc1`, the melting point is 170 °C.

In turn, `CCCc1nc(O)n(-c2ccccc2)n1` returned a melting point of 146 °C.

`COc1cccc(OC)c1P(c1c(OC)cccc1OC)c1c(OC)cccc1OC` returned a melting point of 155 °C.

In turn, `NC(C(=O)O)c1ccccc1` (stereo not given) had a melting point of 302 °C.

In turn, `ClCc1c(Cl)cccc1Cl` yielded a melting point of 38 °C.

Take `CC(=CC=C(C)C(=O)O)C(=O)O`: the melting point worked out at 221 °C.

In turn, `C[C@]12CCC(=O)C[C@H]1CC[C@@H]1[C@@H]2CC[C@]2(C)CCC[C@@]12O` registered a melting point of 139 to 140 °C.

For the compound `CC(C)CC=O`, the melting point is -51 °C.

The compound `COc1cccc(C(=O)NN(C(=O)c2cc(C)cc(C)c2)C(C)(C)C)c1C` showed a melting point of 204 °C.

Turning to `CCOC(=O)/C(C#N)=C/c1ccc(-c2ccc([N+](=O)[O-])cc2)o1`, the melting point is 238 °C.

On to `O=C(c1ccccc1)c1ccc2c(c1)OCCCO2`, for which the melting point was in the range of 72 to 75 °C.

Compound `COc1ccc(C(C#N)C(C)=O)c(Cl)c1` (stereo not given) showed a melting point of 79 °C.

`NC(=O)c1ccc2c(c1)OCO2`: the melting point fell in the range of 167 to 169 °C.

`BrCC=Cc1ccccc1` had a melting point of 26 to 32 °C.

As for `O=C(O)/C=C/C=C/C(=O)O`, the melting point was 301 °C.

Compound `COC(=O)c1c(OC)ccc(OC)c1C(=O)OC` returned a melting point of 101 °C.
